According to ChEMBL document CHEMBL1201861, “Genomics of Drug Sensitity in Cancer screening data, Wellcome Trust Sanger Institute”:

Columns and labels:
Experiment in all cases: cells
[1] = tested on: CTV-1; type: functional, cell-based; conditions: Homo sapiens;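 note: growth inhibition of the cell line, read out with a cell viability assay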
Description: SANGER: Inhibition of human CTV-1 cell growth in a cell viability assay.

[2] = tested on: DB; type: functional, cell-based; conditions: Homo sapiens
Description: SANGER: Inhibition of human DB cell growth in a cell viability assay.

[3] = tested on: DOHH-2; type: functional, cell-based; conditions: Homo sapiens;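 note: growth inhibition of human DOHH-2 cells, read out with a cell viability assay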
Description: SANGER: Inhibition of human DOHH-2 cell growth in a cell viability assay.

[4] = tested on: EFM-19; type: functional, cell-based, Homo sapiens; conditions: Homo sapiens, EFM-19;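 note: growth inhibition of human EFM-19 cells, measured in a cell viability assay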
Description: SANGER: Inhibition of human EFM-19 cell growth in a cell viability assay.

[5] = tested on: ES4; type: functional, cell-based, Homo sapiens; conditions: Homo sapiens, ES4;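 note: growth inhibition of human ES4 cells, read out by a cell viability assay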
Description: SANGER: Inhibition of human ES4 cell growth in a cell viability assay.

[6] = tested on: ES6; type: functional, cell-based, Homo sapiens; conditions: Homo sapiens, ES6;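 note: growth inhibition of human ES6 cells, read out with a cell viability assay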
Description: SANGER: Inhibition of human ES6 cell growth in a cell viability assay.

[7] = tested on: GI-1; type: functional, cell-based, Homo sapiens; conditions: Homo sapiens, GI-1;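 note: growth inhibition of human GI-1 cells, measured with a cell viability readout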
Description: SANGER: Inhibition of human GI-1 cell growth in a cell viability assay.

[8] = tested on: HCC1569; type: functional, cell-based, Homo sapiens; conditions: Homo sapiens, HCC1569;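 note: growth inhibition of human HCC1569 cells, read out with a cell viability assay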
Description: SANGER: Inhibition of human HCC1569 cell growth in a cell viability assay.

[9] = tested on: HEL; type: functional, cell-based, Homo sapiens; conditions: Homo sapiens, HEL;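 note: growth inhibition of HEL cells, read out with a cell viability assay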
Description: SANGER: Inhibition of human HEL cell growth in a cell viability assay.

[10] = tested on: HOP-92; type: functional, cell-based, Homo sapiens; conditions: Homo sapiens, HOP-92;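 note: cell viability readout, with IC50 reflecting inhibition of HOP-92 cell growth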
Description: SANGER: Inhibition of human HOP-92 cell growth in a cell viability assay.

[11] = tested on: HSC-2; type: functional, cell-based, Homo sapiens; conditions: Homo sapiens, HSC-2;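 note: growth inhibition of human HSC-2 cells, read out by a cell viability assay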
Description: SANGER: Inhibition of human HSC-2 cell growth in a cell viability assay.

[12] = tested on: HT; type: functional, cell-based; conditions: Homo sapiens
Description: SANGER: Inhibition of human HT cell growth in a cell viability assay.

[13] = tested on: HT-144; type: functional, cell-based, Homo sapiens; conditions: Homo sapiens, HT-144
Description: SANGER: Inhibition of human HT-144 cell growth in a cell viability assay.

[14] = tested on: IA-LM; type: functional, cell-based, Homo sapiens; conditions: Homo sapiens, IA-LM;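 note: cell viability assay measuring growth inhibition of human IA-LM cells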
Description: SANGER: Inhibition of human IA-LM cell growth in a cell viability assay.

[15] = tested on: JEG-3; type: functional, cell-based, Homo sapiens; conditions: Homo sapiens, JEG-3;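 note: growth inhibition of human JEG-3 cells, read out with a cell viability assay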
Description: SANGER: Inhibition of human JEG-3 cell growth in a cell viability assay.

[16] = tested on: JVM-2; type: functional, cell-based; conditions: Homo sapiens;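 note: growth inhibition of JVM-2 cells determined by a cell viability assay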
Description: SANGER: Inhibition of human JVM-2 cell growth in a cell viability assay.

[17] = tested on: KARPAS-45; type: functional, cell-based; conditions: Homo sapiens;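 note: inhibition of cell line growth, read out through a viability assay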
Description: SANGER: Inhibition of human KARPAS-45 cell growth in a cell viability assay.

[18] = tested on: KURAMOCHI; type: functional, cell-based; conditions: Homo sapiens;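 note: growth inhibition of KURAMOCHI cells, read out with a cell viability assay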
Description: SANGER: Inhibition of human KURAMOCHI cell growth in a cell viability assay.

[19] = tested on: KYSE-150 cell line; type: functional, cell-based, Homo sapiens; conditions: Homo sapiens, KYSE-150;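 note: growth inhibition of human KYSE-150 cells, read out with a cell viability assay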
Description: SANGER: Inhibition of human KYSE-150 cell growth in a cell viability assay.

[20] = tested on: KYSE-410; type: functional, cell-based, Homo sapiens; conditions: Homo sapiens, KYSE-410;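 note: growth inhibition of KYSE-410 cells, measured through a cell viability readout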
Description: SANGER: Inhibition of human KYSE-410 cell growth in a cell viability assay.

[21] = tested on: LB2518-MEL; type: functional, cell-based, Homo sapiens; conditions: Homo sapiens, LB2518-MEL;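 note: growth inhibition of human LB2518-MEL cells, measured with a cell viability assay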
Description: SANGER: Inhibition of human LB2518-MEL cell growth in a cell viability assay.

[22] = tested on: LCLC-97TM1; type: functional, cell-based, Homo sapiens; conditions: Homo sapiens, LCLC-97TM1;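 note: cell viability assay measuring growth inhibition of human LCLC-97TM1 cells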
Description: SANGER: Inhibition of human LCLC-97TM1 cell growth in a cell viability assay.

[23] = tested on: LS-411N; type: functional, cell-based, Homo sapiens; conditions: Homo sapiens, LS-411N
[24] = tested on: MFE-280; type: functional, cell-based, Homo sapiens; conditions: Homo sapiens, MFE-280;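 note: growth inhibition of MFE-280 cells, determined with a cell viability readout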
Description: SANGER: Inhibition of human MFE-280 cell growth in a cell viability assay.

[25] = tested on: MFM-223; type: functional, cell-based, Homo sapiens; conditions: Homo sapiens, MFM-223
Description: SANGER: Inhibition of human MFM-223 cell growth in a cell viability assay.

[26] = tested on: MN-60; type: functional, cell-based; conditions: Homo sapiens;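 note: growth inhibition of the MN-60 cell line, determined with a cell viability assay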
Description: SANGER: Inhibition of human MN-60 cell growth in a cell viability assay.

[27] = tested on: MZ1-PC; type: functional, cell-based, Homo sapiens; conditions: Homo sapiens, MZ1-PC;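 note: cell viability assay measuring growth inhibition of human MZ1-PC cells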
Description: SANGER: Inhibition of human MZ1-PC cell growth in a cell viability assay.

[28] = tested on: NCI-H1623; type: functional, cell-based, Homo sapiens; conditions: Homo sapiens, NCI-H1623;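 note: cell viability assay used as the read-out for growth inhibition of NCI-H1623 cells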
Description: SANGER: Inhibition of human NCI-H1623 cell growth in a cell viability assay.

[29] = tested on: NCI-H1648; type: functional, cell-based, Homo sapiens; conditions: Homo sapiens, NCI-H1648;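 note: cell viability assay measuring inhibition of NCI-H1648 cell growth, from the Sanger screening data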
Description: SANGER: Inhibition of human NCI-H1648 cell growth in a cell viability assay.

[30] = tested on: NCI-H1650; type: functional, cell-based, Homo sapiens; conditions: Homo sapiens, NCI-H1650;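 note: growth inhibition of human NCI-H1650 cells measured by a cell viability assay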
Description: SANGER: Inhibition of human NCI-H1650 cell growth in a cell viability assay.

[31] = tested on: NCI-H2342; type: functional, cell-based; conditions: Homo sapiens;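 note: growth inhibition of the cancer cell line, determined with a cell viability assay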
Description: SANGER: Inhibition of human NCI-H2342 cell growth in a cell viability assay.

[32] = tested on: NCI-H441; type: functional, cell-based; conditions: Homo sapiens;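 note: growth inhibition of NCI-H441 cells, read out with a cell viability assay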
Description: SANGER: Inhibition of human NCI-H441 cell growth in a cell viability assay.

[33] = tested on: NCI-H446; type: functional, cell-based; conditions: Homo sapiens;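 note: growth inhibition of NCI-H446 cells determined by a cell viability assay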
Description: SANGER: Inhibition of human NCI-H446 cell growth in a cell viability assay.

[34] = tested on: SNU-5; type: functional, cell-based; conditions: Homo sapiens;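 note: cell viability readout used to measure growth inhibition in human NCI-SNU-5 cells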
Description: SANGER: Inhibition of human NCI-SNU-5 cell growth in a cell viability assay.

[35] = tested on: NMC-G1; type: functional, cell-based, Homo sapiens; conditions: Homo sapiens, NMC-G1;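 note: growth inhibition of the NMC-G1 cell line, measured with a cell viability read-out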
Description: SANGER: Inhibition of human NMC-G1 cell growth in a cell viability assay.

[36] = tested on: OVCAR-4; type: functional, cell-based, Homo sapiens; conditions: Homo sapiens, OVCAR-4;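 note: growth inhibition of human OVCAR-4 cells, measured with a cell viability assay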
Description: SANGER: Inhibition of human OVCAR-4 cell growth in a cell viability assay.

[37] = tested on: PFSK-1; type: functional, cell-based, Homo sapiens; conditions: Homo sapiens, PFSK-1;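 note: cell viability assay measuring how strongly compounds suppress growth of human PFSK-1 cells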
Description: SANGER: Inhibition of human PFSK-1 cell growth in a cell viability assay.

[38] = tested on: SBC-1; type: functional, cell-based; conditions: Homo sapiens;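 note: cell viability assay measuring growth inhibition of the SBC-1 cell line, IC50 being the concentration that halves growth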
Description: SANGER: Inhibition of human SBC-1 cell growth in a cell viability assay.

[39] = tested on: SK-LU-1; type: functional, cell-based, Homo sapiens; conditions: Homo sapiens, SK-LU-1;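 note: cell viability assay measuring growth inhibition of human SK-LU-1 cells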
Description: SANGER: Inhibition of human SK-LU-1 cell growth in a cell viability assay.

[40] = tested on: SK-MEL-30; type: functional, cell-based; conditions: Homo sapiens;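 note: growth inhibition of SK-MEL-30 cells, determined with a cell viability assay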
Description: SANGER: Inhibition of human SK-MEL-30 cell growth in a cell viability assay.

[41] = tested on: SNU-387; type: functional, cell-based, Homo sapiens; conditions: Homo sapiens, SNU-387
Description: SANGER: Inhibition of human SNU-387 cell growth in a cell viability assay.

[42] = tested on: SW1417; type: functional, cell-based, Homo sapiens; conditions: Homo sapiens, SW1417;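 note: growth inhibition of human SW1417 cells, read out with a cell viability assay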
Description: SANGER: Inhibition of human SW1417 cell growth in a cell viability assay.

[43] = tested on: SW626; type: functional, cell-based, Homo sapiens; conditions: Homo sapiens, SW626;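 note: growth inhibition of SW626 cells, measured with a cell viability assay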
Description: SANGER: Inhibition of human SW626 cell growth in a cell viability assay.

[44] = tested on: SW837; type: functional, cell-based, Homo sapiens; conditions: Homo sapiens, SW837;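 note: growth inhibition of SW837 cells, determined with a cell viability assay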
Description: SANGER: Inhibition of human SW837 cell growth in a cell viability assay.

[45] = tested on: SAOS-2; type: functional, cell-based, Homo sapiens; conditions: Homo sapiens, SAOS-2;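 note: growth inhibition of human Saos-2 cells determined by a cell viability assay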
Description: SANGER: Inhibition of human Saos-2 cell growth in a cell viability assay.

[46] = tested on: 8-MG-BA; type: functional, cell-based, Homo sapiens; conditions: Homo sapiens, 8-MG-BA;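 note: growth inhibition of 8-MG-BA cells, read out with a cell viability assay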
Description: SANGER: Inhibition of human 8-MG-BA cell growth in a cell viability assay.

[47] = tested on: 8505C; type: functional, cell-based, Homo sapiens; conditions: Homo sapiens, 8505C
Description: SANGER: Inhibition of human 8505C cell growth in a cell viability assay.

[48] = tested on: A101D; type: functional, cell-based, Homo sapiens; conditions: Homo sapiens, A101D;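 note: growth inhibition of the cell line, measured with a viability assay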
Description: SANGER: Inhibition of human A101D cell growth in a cell viability assay.

[49] = tested on: ACHN; type: functional, cell-based, Homo sapiens; conditions: Homo sapiens, ACHN;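 note: cell viability read-out used to gauge how strongly growth of human ACHN cells is suppressed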
Description: SANGER: Inhibition of human ACHN cell growth in a cell viability assay.

[50] = tested on: BT-20; type: functional, cell-based, Homo sapiens; conditions: Homo sapiens, BT-20;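 note: cell viability assay measuring suppression of growth in human BT-20 cells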
Description: SANGER: Inhibition of human BT-20 cell growth in a cell viability assay.

[51] = tested on: U2OS; type: functional, cell-based, Homo sapiens, U-2-OS; conditions: Homo sapiens, U2OS;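 note: growth inhibition of human U-2-OS cells, determined with a cell viability assay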
Description: SANGER: Inhibition of human U-2-OS cell growth in a cell viability assay.

[52] = tested on: VM-CUB-1; type: functional, cell-based; conditions: Homo sapiens;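 note: cell viability assay measuring growth inhibition of the human VM-CUB-1 cell line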
Description: SANGER: Inhibition of human VM-CUB-1 cell growth in a cell viability assay.

Measured: IC50

CN(Cc1cnc2nc(N)nc(N)c2n1)c1ccc(C(=O)N[C@@H](CCC(=O)O)C(=O)O)cc1 [METHOTREXATE]
124 nM: [17]
65.7 nM: [26]
85.3 nM: [49]
182 nM: [51]
79.5 nM: [5]
11.5 nM: [9]
21.3 nM: [2]
77.1 nM: [1]
115 nM: [19]
134 nM: [12]
118 nM: [23]
21.6 nM: [3]
> 200 nM: all other assays above

Cn1cc(C2=C(c3ccc(Cl)cc3Cl)C(=O)NC2=O)c2ccccc21 [SB-216763]
> 10000 nM: all assays above
